Read-outs that look alike come from different tables or passages of the source.
How the values were obtained:
visna virus = assay: microbe, parasite or virus in culture; assay type: cell-based; conditions: for inhibition at 100 µM / inhibition at 1000 µM: Visna-maedi virus
α-glucosidase = assay: Inhibition of α-glucosidase in conventional enzyme assay; assay type: biochemical; conditions: 1 mM concentration
β-glucosidase = assay: Inhibition of β-glucosidase in conventional enzyme assay; assay type: biochemical; conditions: 1 mM concentration
[1] = read-out: Visna % Plague Redn (Conc)
[2] = read-out: Visna % Plaque Redn (Conc)

Structure (SMILES) | inhibition at 100 µM (visna virus; [1]) | inhibition at 100 µM (visna virus; [2]) | inhibition at 1000 µM (visna virus; [2]) | also measured
CCCCN1CC(NC)C(O)C(O)C1CO [Compound 29, 1,5-(butylimino)-1,2,5-trideoxy-2-(methylamino)-D-glucitol] | 25% |  |  | 
CCCCN1CC(N=[N+]=[N-])C(O)C(O)C1CO [Compound 13, 2-azido-1,5-(butylimino)-1,2,5-trideoxy-D-glucitol] | 78% | 78% |  | 
CCC(CC)CN1CC(N)C(O)C(O)C1CO [Compound 22, 2-amino-1,5-{(2-ethylbutyl)imino}-1,2,5-trideoxy-D-glucitol] |  |  |  | Visna % Plaque Redn (Conc), only a concentration bound printed (visna virus; Table 3, no % printed): > 1 mm
CCCCN1CC(NC(=O)CCC)C(O)C(O)C1CO [Compound 30, 1,5-(butylimino)-1,2,5-trideoxy-2-{(1-oxobutyl)amino}-D-glucitol] | 20% |  |  | 
N[C@H]1[C@H](O)[C@@H](CO)NC[C@@H]1O [Compound 37, 3-amino-1,3,5-trideoxy-1,5-imino-D-glucitol] |  |  | 30% | 
CCC(CC)CN1CC(N=[N+]=[N-])C(O)C(O)C1CO [Compound 14, 2-azido-1,5-{(2-ethylbutyl)imino}-1,2,5-trideoxy-D-glucitol] |  | 67% |  | 
CCCCN1CC(NC(=O)CCC)C(OC(=O)CCC)C(OC(=O)CCC)C1COC(=O)CCC [Compound 31, 1,5-(butylimino)-1,2,5-trideoxy-2-{(1-oxobutyl)amino}-D-glucitol, tributanoate] | 29% |  |  | 
CCCCN1CC(N)C(O)C(O)C1CO [Compound 21, 2-amino-1,5-(butylimino)-1,2,5-trideoxy-D-glucitol] | 66% | 66% |  | 
NC1CN(CCCC(F)(F)F)C(CO)C(O)C1O [Compound 23, 2-amino-1,5-{(4,4,4-trifluorobutyl)imino}-1,2,5-trideoxy-D-glucitol] |  |  | 9% | 
[N-]=[N+]=N[C@H]1CN[C@H](CO)[C@@H](O)[C@@H]1O [Compound 12, 2-azido-1,2,5-trideoxy-1,5-imino-D-glucitol] |  | 76% |  | 
CCCCN1CC(N)C(N)C(O)C1CO [Compound 46, 2,3-diamino-1,5-(butylimino)-1,2,3,5-tetradeoxy-D-glucitol] |  |  | 3% | 
[N-]=[N+]=NC1CN(CCCC(F)(F)F)C(CO)C(O)C1O [Compound 15, 2-azido-1,5-{(4,4,4-trifluorobutyl)imino}-1,2,5-trideoxy-D-glucitol] |  |  | 41% | 
N[C@H]1CN[C@H](CO)[C@@H](O)[C@@H]1O [Compound 20, 2-amino-1,2,5-trideoxy-1,5-imino-D-glucitol] |  | 91% |  | 
CN(C)CCN[C@@H]1[C@H](O)[C@@H](CO)NC[C@H]1O [Compound 50, 3-[{2-(dimethylamino)ethyl}amino]-1,3,5-trideoxy-1,5-imino-D-altritol] |  |  | 38% | inhibition of α-glucosidase (α-glucosidase): 22%; inhibition of β-glucosidase (β-glucosidase): 22%
CCCCN1CC(N(C)C)C(O)C(O)C1CO [Compound 28, 1,5-(butylimino)-1,2,5-trideoxy-2-(dimethylamino)-D-glucitol] | 41% |  |  | 
